Laboratory results: the NIST ThermoML archive (doi:10.1016/j.tca.2013.03.010)
Numbers after ± are expanded uncertainties.

Key:
[1] = 101 kPa, Liquid; for viscosity: Capillary tube (Ostwald / Ubbelohde) method; for mass density: Vibrating tube method
[2] = xn = mol fraction of the nth substance listed; settings: 101 kPa, Liquid; for viscosity: Capillary tube (Ostwald / Ubbelohde) method; for mass density: Vibrating tube method

OCCO [1,2-ethanediol]
[1]
Settings	mass density [kg/m3]	viscosity [mPa·s]
298.15 K	–	16.87 ± 0.18
303.15 K	1106 ± 1.1	13.59 ± 0.15
308.15 K	–	11.34 ± 0.12

OCCO [1,2-ethanediol] + CC(O)CO
[2], x1 = 1
Settings	mass density [kg/m3]	viscosity [mPa·s]
298.15 K	–	16.87 ± 0.18
303.15 K	1106 ± 1.1	13.59 ± 0.15
308.15 K	–	11.34 ± 0.12

OCCO [1,2-ethanediol] + OCCCO
[2], x1 = 1
Settings	mass density [kg/m3]	viscosity [mPa·s]
298.15 K	–	16.87 ± 0.18
303.15 K	1106 ± 1.1	13.59 ± 0.15
308.15 K	–	11.34 ± 0.12

CC(O)CO (stereo not given) [1,2-propanediol]
[1]
Settings	mass density [kg/m3]	viscosity [mPa·s]
298.15 K	1032.7 ± 0.2	44.78 ± 0.2
303.15 K	1028.8 ± 0.2	33.75 ± 0.15
308.15 K	1025.2 ± 0.2	27 ± 0.12

CC(O)CO (stereo not given) [1,2-propanediol] + OCCCO
[2], x1 = 1
Settings	mass density [kg/m3]	viscosity [mPa·s]
298.15 K	1032.7 ± 0.2	44.78 ± 0.2
303.15 K	1028.8 ± 0.2	33.75 ± 0.15
308.15 K	1025.2 ± 0.2	27 ± 0.12

CC(O)CO (stereo not given) [1,2-propanediol] + OCCO
[2]
Settings	mass density, 298.15 K [kg/m3]	mass density, 303.15 K [kg/m3]	mass density, 308.15 K [kg/m3]	viscosity, 298.15 K [mPa·s]	viscosity, 303.15 K [mPa·s]	viscosity, 308.15 K [mPa·s]
x2 = 0	1032.7 ± 0.2	1028.8 ± 0.2	1025.2 ± 0.2	44.78 ± 0.2	33.75 ± 0.15	27 ± 0.12
x2 = 0.1208	1041 ± 0.2	1036.9 ± 0.2	1033.3 ± 0.2	42.41 ± 0.21	32.1 ± 0.16	25.65 ± 0.13
x2 = 0.2353	1048.6 ± 0.3	1044.6 ± 0.3	1041 ± 0.3	40.03 ± 0.22	30.14 ± 0.17	24.13 ± 0.13
x2 = 0.3454	1056.1 ± 0.3	1052.1 ± 0.3	1048.5 ± 0.3	37.28 ± 0.23	28.08 ± 0.17	22.51 ± 0.14
x2 = 0.4345	1062.3 ± 0.3	1058.4 ± 0.3	1054.7 ± 0.3	34.74 ± 0.23	26.24 ± 0.18	21.05 ± 0.14
x2 = 0.5508	1070.8 ± 0.4	1066.9 ± 0.4	1063.4 ± 0.4	31.35 ± 0.23	23.8 ± 0.18	19.11 ± 0.14
x2 = 0.6303	1077 ± 0.5	1073.1 ± 0.5	1069.5 ± 0.5	28.91 ± 0.23	22.06 ± 0.18	17.78 ± 0.14
x2 = 0.7473	1086.6 ± 0.6	1082.7 ± 0.6	1079.2 ± 0.6	25.33 ± 0.23	19.52 ± 0.18	15.82 ± 0.14
x2 = 0.8302	1093.7 ± 0.8	1089.8 ± 0.8	1086.4 ± 0.8	22.72 ± 0.22	17.62 ± 0.17	14.39 ± 0.14
x2 = 0.9065	1100.6 ± 0.9	1096.8 ± 0.9	1093.4 ± 0.9	20.16 ± 0.2	15.86 ± 0.16	13.07 ± 0.13

OCCCO [propan-1,3-diol]
[1]
Settings	mass density [kg/m3]	viscosity [mPa·s]
298.15 K	1049.6 ± 0.9	41.36 ± 0.45
303.15 K	1046.2 ± 0.9	32.78 ± 0.36
308.15 K	1043.1 ± 0.9	26.34 ± 0.29

OCCCO [propan-1,3-diol] + CC(O)CO
[2]
Settings	mass density, 298.15 K [kg/m3]	mass density, 303.15 K [kg/m3]	mass density, 308.15 K [kg/m3]	viscosity, 298.15 K [mPa·s]	viscosity, 303.15 K [mPa·s]	viscosity, 308.15 K [mPa·s]
x2 = 0	1049.6 ± 0.9	1046.2 ± 0.9	1043.1 ± 0.9	41.36 ± 0.45	32.78 ± 0.36	26.34 ± 0.29
x2 = 0.1002	1049.1 ± 0.8	1046 ± 0.8	1043 ± 0.8	41.77 ± 0.42	32.93 ± 0.33	26.45 ± 0.27
x2 = 0.2105	1048.3 ± 0.6	1045.6 ± 0.6	1042.8 ± 0.6	42.23 ± 0.39	33.12 ± 0.31	26.56 ± 0.25
x2 = 0.2994	1047.8 ± 0.5	1045.1 ± 0.5	1042.2 ± 0.5	42.59 ± 0.36	33.26 ± 0.28	26.66 ± 0.23
x2 = 0.4088	1046.9 ± 0.4	1044.1 ± 0.4	1041 ± 0.4	43.02 ± 0.33	33.43 ± 0.26	26.75 ± 0.21
x2 = 0.5002	1045.9 ± 0.4	1043 ± 0.4	1039.9 ± 0.4	43.38 ± 0.31	33.56 ± 0.24	26.84 ± 0.19
x2 = 0.5937	1044.7 ± 0.3	1041.7 ± 0.3	1038.5 ± 0.3	43.73 ± 0.28	33.66 ± 0.22	26.91 ± 0.18
x2 = 0.7125	1042.6 ± 0.3	–	–	44.08 ± 0.25	33.73 ± 0.2	26.94 ± 0.16
x2 = 0.7126	–	1039.3 ± 0.3	1036 ± 0.3	–	–	–
x2 = 0.7996	1040.2 ± 0.2	1036.7 ± 0.2	1033.5 ± 0.2	44.31 ± 0.23	33.75 ± 0.18	26.96 ± 0.14
x2 = 0.9217	1036.5 ± 0.2	1033 ± 0.2	1029.7 ± 0.2	44.62 ± 0.21	33.76 ± 0.16	26.99 ± 0.13

OCCCO [propan-1,3-diol] + OCCO
[2]
Settings	mass density, 298.15 K [kg/m3]	mass density, 303.15 K [kg/m3]	mass density, 308.15 K [kg/m3]	viscosity, 298.15 K [mPa·s]	viscosity, 303.15 K [mPa·s]	viscosity, 308.15 K [mPa·s]
x2 = 0	1049.6 ± 0.9	1046.2 ± 0.9	1043.1 ± 0.9	41.36 ± 0.45	32.78 ± 0.36	26.34 ± 0.29
x2 = 0.1107	1055.3 ± 1	1051.7 ± 0.9	1048.5 ± 0.9	39.55 ± 0.43	31.2 ± 0.34	24.94 ± 0.27
x2 = 0.2024	1060.1 ± 1	1056.5 ± 1	1053.1 ± 0.9	37.7 ± 0.41	29.75 ± 0.32	23.7 ± 0.26
x2 = 0.3597	1069.3 ± 1	1065.7 ± 1	1061.9 ± 1	34.33 ± 0.37	26.96 ± 0.29	21.43 ± 0.23
x2 = 0.4617	1075.7 ± 1	1072 ± 1	1068.1 ± 1	31.96 ± 0.35	25.06 ± 0.27	19.91 ± 0.22
x2 = 0.551	1081.4 ± 1	1077.6 ± 1	1073.6 ± 1	29.75 ± 0.32	23.32 ± 0.25	18.56 ± 0.2
x2 = 0.6258	1086.2 ± 1	1082.3 ± 1	1078.3 ± 1	27.76 ± 0.3	21.77 ± 0.24	17.39 ± 0.19
x2 = 0.7354	1093.1 ± 1	1089.2 ± 1	1085.2 ± 1	24.77 ± 0.27	19.45 ± 0.21	15.66 ± 0.17
x2 = 0.8285	1099.1 ± 1	1095.2 ± 1	1091.1 ± 1	22.09 ± 0.24	17.39 ± 0.19	14.15 ± 0.15
x2 = 0.9105	1104.5 ± 1.1	1100.7 ± 1	1096.5 ± 1	19.62 ± 0.21	15.64 ± 0.17	12.82 ± 0.14
